{
  "source": "paper PMC8546056",
  "about": "(Nature Communications, 2021)",
  "key": {"B/Malaysia/2506/2004 NA": {"system": "T1, B/Malaysia/2506/2004 NA", "T1 construct": "recombinant NA secreted from High Five insect cells (baculovirus); N-terminal VASP tetramerization domain", "type": "biochemical, Influenza B virus"}, "WSEIV NA": {"target": "WSEIV NA (Wuhan spiny eel influenza virus, UniProt A0A2P1GNP4)", "type": "biochemical"}, "[1]": {"system": "CC(=O)N[C@H]1[C@H]([C@H](O)[C@H](O)CO)O[C@](Oc2ccc3c(C)cc(=O)oc3c2)(C(=O)O)C[C@@H]1O", "assay": "purified protein", "settings": "37.0 °C"}},
  "data": [
    {"compound": "CC(=O)N[C@H]1[C@H]([C@H](O)[C@H](O)CO)O[C@](Oc2ccc3c(C)cc(=O)oc3c2)(C(=O)O)C[C@@H]1O", "note": "[MUNANA, 4-methylumbelli-feryl N-acetyl-α-D-neuraminic acid]", "values": [
      {"measurement": "Km", "setting": "B/Malaysia/2506/2004 NA", "value": "137 ± 23.7", "unit": "µM"}
    ]},
    {"compound": "CCOC(=O)C1=C[C@@H](OC(CC)CC)[C@H](NC(C)=O)[C@@H](N)C1", "note": "[oseltamivir]", "values": [
      {"measurement": "dose-dependent inhibition", "setting": "WSEIV NA", "value": "The WSEIV NA was sensitive to oseltamivir"}
    ]},
    {"compound": "WSEIV NA (Wuhan spiny eel influenza virus)", "values": [
      {"measurement": "Km", "setting": "[1]", "value": "118.5 ± 18.3", "unit": "µM"}
    ]}
  ]
}
